Results: patent US8555897B2, “Method of making a cigarette and method of reducing cytotoxicity in tobacco smoke” (priority 2005, dated 2013)
Where two headings read alike, the source gives them in different places.

Columns and labels:
[1] = Gas vapor phase (GVP) toxicity
Excerpt: Additionally, a control filler was sprayed with 20 g of deionized H2O. Next, the sprayed fillers were dried, conditioned and processed into handmade cigarettes.

[2] = TPM cytotoxicity of cigarette smoke
[3] = TPM mutagenicity of cigarette smoke
[4] = Table 1, filler additive 10.8% NH4OAc or 6.3% Co(NH3)6Cl3, vs water-sprayed control
[5] = Table 4, NH4OAc alone: filler treatment scaled up to 300 g/batch

CC(=O)[O-].CC(=O)[O-].CC(=O)[O-].N.N.N.N.N.N.[Co+3] [Co(NH3)6(OAc)3, hexammine cobalt (III) acetate]
GVP Toxicity, change ([1]; Table 5, Co 1.3%, NH3 2.4%, glycerin 10% where present, vs water-sprayed control): −42% | Cytotoxicity, change (TPM) [2]: −24% | TPM and GVP toxicity of cigarette smoke (in words) [2]: significant reduction

N.N.N.N.N.N.[Cl-].[Cl-].[Cl-].[Co+3] [Co(NH3)6Cl3, hexammine cobalt (III) chloride]
Cytotoxicity, change (MS TPM) [2]: −34%

CC(=O)O.N [NH4OAc, ammonium acetate]
reduction in GVP toxicity ([1]; Table 3): 29% | GVP Toxicity, change ([1]; Table 3, change from control): −29% | Mutagenicity, change (MS TPM) [3, 4]: −11% | Mutagenicity, change (TPM) [3, 5]: 9% | Cytotoxicity, change (MS TPM) [2, 4]: −33% | Cytotoxicity, change (TPM) [2, 5]: −26%
